Source: patent US10023592B2, “Bromodomain inhibitors” (Celgene Quanticel Research, Inc., priority 2013, dated 2018)
Counter-ions that a name gives are not always drawn. Like-named read-outs stand apart in the source and are kept apart here.

Biological target: BRD4(BD1) (Homo sapiens (Human), UniProt O60885)
Test: In vitro enzyme inhibition assay (BRD4 AlphaScreen)
Type: binding
Experimental: His-tagged BRD4 was cloned, expressed and purified to homogeneity. […] BRD4 binding and inhibition was assessed by monitoring the interaction of biotinylated H4-tetraacetyl peptide (AnaSpec, H4K5/8/12/16(Ac), biotin-labeled) with the target using the AlphaScreen technology (Life Technologies). […] After 20 min incubation at room temp, Alpha streptavidin donor beads and Nickel Chelate acceptor beads were added to a final concentration of 5 μg/mL.
The ability of the compounds disclosed herein to inhibit BRD4 activity was quantified and the respective IC50 value was determined.

| Molecule | IC50 (class symbols A/B/C) [µM] | IC50 [µM] |
| --- | --- | --- |
| 8-[2-(cyclopropylmethoxy)-5-ethylsulfonylphenyl]-6-methyl-3,4,4a,8a-tetrahydro-2H-pyrido[4,3-b][1,4]oxazin-5-one [Example 366] | – | < 0.5 |
| COc1cccc(-c2cn(C)c(=O)c3ccccc23)c1 [Example 1, 4-(3-methoxyphenyl)-2-methylisoquinolin-1-one] | 0.5 to 5 | – |
| Cn1cc(-c2ccccc2F)c2ccccc2c1=O [Example 3, 4-(2-fluorophenyl)-2-methylisoquinolin-1-one] | > 5 | – |
| COc1ccccc1-c1cn(C)c(=O)c2ccccc12 [Example 4, 4-(2-methoxyphenyl)-2-methylisoquinolin-1-one] | > 5 | – |
| Cn1cc(-c2cccc(S(=O)(=O)NC3CC3)c2)c2ccccc2c1=O [Example 6, N-cyclopropyl-3-(2-methyl-1-oxoisoquinolin-4-yl) benzenesulfonamide] | 0.5 to 5 | – |
| Cn1cc(-c2cccc(S(=O)(=O)N3CCOCC3)c2)c2ccccc2c1=O [Example 14, 2-methyl-4-(3-morpholin-4-yl-sulfonylphenyl) isoquinolin-1-one] | 0.5 to 5 | – |
| COc1ccc(-c2cn(C)c(=O)c3ccccc23)cc1S(N)(=O)=O [Example 16, 2-methoxy-5-(2-methyl-1-oxoisoquinolin-4-yl) benzenesulfonamide] | 0.5 to 5 | – |
| Cn1cc(-c2cc(N)ccc2F)c2ccccc2c1=O [Example 23, 4-(5-amino-2-fluorophenyl)-2-methylisoquinolin-1-one hydrochloride] | 0.5 to 5 | – |
| Cn1cc(-c2cc(N)c(F)cc2F)c2ccccc2c1=O [Example 24, 4-(5-amino-2,4-difluorophenyl)-2-methylisoquinolin-1-one hydrochloride] | 0.5 to 5 | – |
| Cn1cc(-c2cccc(S(N)(=O)=O)c2)c2ccncc2c1=O [Example 55, 3-(2-methyl-1-oxo-2,7-naphthyridin-4-yl) benzenesulfonamide] | > 5 | – |
| COc1ccc(-c2cn(C)c(=O)c3cnccc23)cc1S(N)(=O)=O [Example 56, 2-methoxy-5-(2-methyl-1-oxo-2,7-naphthyridin-4-yl) benzenesulfonamide] | > 5 | – |

Now from value to molecule, other results behind:

| IC50 (class symbols A/B/C) [µM] | Molecule | IC50 [µM] |
| --- | --- | --- |
| 0.5 to 5 | Cn1cc(-c2ccc3c(c2)NCCO3)c2ccccc2c1=O [Example 19, 4-(3,4-dihydro-2H-1,4-benzoxazin-6-yl)-2-methylisoquinolin-1-one] | – |
| 0.5 to 5 | Cn1cc(-c2cc(N)cc(F)c2)c2ccccc2c1=O [Example 25, 4-(3-amino-5-fluorophenyl)-2-methylisoquinolin-1-one hydrochloride] | – |
| 0.5 to 5 | Cn1cc(-c2ccc(F)c(N)c2)c2ccccc2c1=O [Example 26, 4-(3-amino-4-fluorophenyl)-2-methylisoquinolin-1-one hydrochloride] | – |
| 0.5 to 5 | CNc1cccc(-c2cn(C)c(=O)c3ccccc23)c1 [Example 32, 2-methyl-4-[3-(methylamino)phenyl]isoquinolin-1-one Hydrochloride] | – |
| 0.5 to 5 | COc1ccc(-c2cn(C)c(=O)c3cc(F)ccc23)cc1S(N)(=O)=O [Example 64, 5-(7-fluoro-2-methyl-1-oxoisoquinolin-4-yl)-2-methoxybenzenesulfonamide] | – |
| > 5 | Cn1cc(-c2ccco2)c2ccccc2c1=O [Example 66, 4-(furan-2-yl)-2-methylisoquinolin-1-one] | – |
| > 5 | Cn1cc(-c2ccn[nH]2)c2ccccc2c1=O [Example 68, 2-methyl-4-(1H-pyrazol-5-yl)isoquinolin-1-one] | – |
| 0.5 to 5 | CCS(=O)(=O)Nc1cccc(-c2cn(C)c(=O)c3ccc(-c4ccccc4)cc23)c1 [Example 73, N-[3-(2-methyl-1-oxo-6-phenylisoquinolin-4-yl)phenyl]ethanesulfonamide] | – |
| < 0.5 | CCS(=O)(=O)c1ccc(O)c(-c2cn(C)c(=O)c3ccc(-c4cnn(C)c4)cc23)c1 [Example 80, 4-(5-ethylsulfonyl-2-hydroxyphenyl)-2-methyl-6-(1-methylpyrazol-4-yl) isoquinolin-1-one] | – |
